In ChEMBL document CHEMBL1201862, “PubChem BioAssay data set” (2004):
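Protocol summary: plate cells (96-well), add compound at 5 concentrations, incubate 48 h, interpolate endpoints linearly. GI50 is the concentration that inhibits growth by half.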 Activity calls are given as the source filed them. Cut-off read from the data, not from the text of the source: active = GI50 up to about 1.1 µM and inactive = higher.

How the values were obtained:
Test in all cases: inhibition of tumour cell growth, NCI panel, 48 h
TK-10 = tested on: TK-10
CAKI-1 = tested on: CAKI-1
SF-295 = tested on: SF-295
Malme-3M = tested on: Malme-3M
OVCAR-3 = tested on: OVCAR-3
NCI-H460 = tested on: NCI-H460
ACHN = tested on: ACHN
K562 = tested on: K562
BT-549 = tested on: BT-549
SK-MEL-2 = tested on: SK-MEL-2
MOLT-4 = tested on: MOLT-4
SR = tested on: SR
SW-620 = tested on: SW-620
A549 = tested on: A549
OVCAR-8 = tested on: OVCAR-8
CCRF-CEM = tested on: CCRF-CEM
MDA-MB-435 = tested on: MDA-MB-435
T47D = tested on: T47D
UACC-257 = tested on: UACC-257

Compound | GI50 (TK-10) | GI50 (CAKI-1) | GI50 (SF-295) | GI50 (Malme-3M) | GI50 (OVCAR-3) | GI50 (NCI-H460) | GI50 (ACHN) | GI50 (K562) | GI50 (BT-549) | GI50 (SK-MEL-2) | GI50 (MOLT-4) | GI50 (SR) | GI50 (SW-620) | GI50 (A549) | GI50 (OVCAR-8) | GI50 (CCRF-CEM) | GI50 (MDA-MB-435) | GI50 (T47D) | GI50 (UACC-257)
COc1cc(C2C3=C(COC3=O)Oc3cc4c(cc32)OCO4)cc(OC)c1OC(C)=O (stereo not given) | 0.966 µM (active) | < 0.01 µM (active) | 0.0316 µM (active) | < 0.0215 µM (active) | 0.0197 µM (active) | 0.0212 µM (active) | < 0.01 µM (active) | 0.0122 µM (active) | 0.0255 µM (active) | 37 µM (inactive) | 0.0612 µM (active) | 0.0406 µM (active) | 0.0202 µM (active) | 0.0462 µM (active) | 0.0316 µM (active) | 0.0258 µM (active) | < 0.01 µM (active) |  | 
Nc1nc(O)c2[nH]cnc2[n+]1[O-] | 53.3 µM (inactive) |  | > 100 µM (inactive) | > 100 µM (inactive) | > 100 µM (inactive) | > 100 µM (inactive) | > 100 µM (inactive) | > 100 µM (inactive) | > 100 µM (inactive) | > 100 µM (inactive) | > 100 µM (inactive) | 75.3 µM (inactive) | > 100 µM (inactive) | > 100 µM (inactive) | > 100 µM (inactive) | > 100 µM (inactive) |  | > 100 µM (inactive) | > 100 µM (inactive)
O=C(O)c1c([N+](=O)[O-])cc(C(F)(F)F)cc1[N+](=O)[O-] | > 100 µM (inactive) | > 100 µM (inactive) | > 100 µM (inactive) |  | > 100 µM (inactive) | > 100 µM (inactive) | > 100 µM (inactive) | > 100 µM (inactive) |  | > 100 µM (inactive) | > 100 µM (inactive) | > 100 µM (inactive) | > 100 µM (inactive) | > 100 µM (inactive) | > 100 µM (inactive) | > 100 µM (inactive) |  |  | > 100 µM (inactive)
CCCNC1=Nc2ccccc2NC(C)C1 (stereo not given) | > 100 µM (inactive) | > 100 µM (inactive) | > 100 µM (inactive) | 79.6 µM (inactive) | > 100 µM (inactive) | > 100 µM (inactive) | > 100 µM (inactive) | > 100 µM (inactive) | > 100 µM (inactive) | > 100 µM (inactive) | > 100 µM (inactive) |  | > 100 µM (inactive) | > 100 µM (inactive) | > 100 µM (inactive) | > 100 µM (inactive) | > 100 µM (inactive) |  | > 100 µM (inactive)
CC(CCCOC(c1ccccc1)(c1ccccc1)c1ccccc1)OC(=O)Nc1ccccc1 (stereo not given) | 20.4 µM (inactive) | 13.5 µM (inactive) | 12.7 µM (inactive) | 15.8 µM (inactive) | 14 µM (inactive) | 11.7 µM (inactive) | 13.6 µM (inactive) | 11.3 µM (inactive) |  |  | 4.55 µM (inactive) | 18.6 µM (inactive) | 14.4 µM (inactive) | 11.1 µM (inactive) | 14 µM (inactive) | 14.6 µM (inactive) |  |  | 15.3 µM (inactive)
c1ccc2sc(C3(N4CCCCC4)CCCC3)cc2c1 | 13.6 µM (inactive) | 18.1 µM (inactive) | 11 µM (inactive) | 13.8 µM (inactive) | 8.69 µM (inactive) | 5.93 µM (inactive) | 8.65 µM (inactive) | 6.61 µM (inactive) | 12.6 µM (inactive) |  | 3.52 µM (inactive) | 0.838 µM (active) | 8.02 µM (inactive) | 5.43 µM (inactive) | 10.4 µM (inactive) | 3.5 µM (inactive) | 14.9 µM (inactive) |  | 14.6 µM (inactive)
O=C(O/N=c1/ccc(=O)/c(=N\OC(=O)c2ccccc2)c1=O)c1ccccc1 | > 100 µM (inactive) | > 100 µM (inactive) | > 100 µM (inactive) |  | > 100 µM (inactive) | > 100 µM (inactive) | > 100 µM (inactive) | 39.4 µM (inactive) |  |  | 40.2 µM (inactive) | > 100 µM (inactive) | > 100 µM (inactive) | > 100 µM (inactive) | > 100 µM (inactive) | 33 µM (inactive) | 53.6 µM (inactive) | > 100 µM (inactive) | 
CC1(c2cccc(N)c2)C2C(=O)NC(=O)C1C(=O)NC2=O (stereo not given) | 50.9 µM (inactive) | 61.9 µM (inactive) | 22.4 µM (inactive) | 31.1 µM (inactive) | 21.7 µM (inactive) | 33 µM (inactive) | 28.2 µM (inactive) | 24.2 µM (inactive) |  | 24.3 µM (inactive) | 18 µM (inactive) |  | 34 µM (inactive) | 33.9 µM (inactive) | 35.9 µM (inactive) | 22.4 µM (inactive) |  |  | 37.9 µM (inactive)
CSc1cc(Cl)c(C)cc1S(=O)(=O)NC(=O)NNc1ccccn1 |  | > 100 µM (inactive) | > 100 µM (inactive) | > 100 µM (inactive) | > 100 µM (inactive) | > 100 µM (inactive) | > 100 µM (inactive) | > 100 µM (inactive) |  | > 100 µM (inactive) | > 100 µM (inactive) | > 100 µM (inactive) | > 100 µM (inactive) | > 100 µM (inactive) | > 100 µM (inactive) | > 100 µM (inactive) | > 100 µM (inactive) | > 100 µM (inactive) | 
COc1cc2c(cc1OC)C1(COc3cc(O)c(O)c(O)c3C1=O)C2 (stereo not given) | > 50 µM (inactive) | > 50 µM (inactive) | 25.9 µM (inactive) | > 50 µM (inactive) | > 50 µM (inactive) | > 50 µM (inactive) | > 50 µM (inactive) | > 50 µM (inactive) |  | > 50 µM (inactive) | > 50 µM (inactive) | > 50 µM (inactive) | > 50 µM (inactive) | > 50 µM (inactive) | > 50 µM (inactive) | > 50 µM (inactive) | > 50 µM (inactive) | 5.11 µM (inactive) | > 50 µM (inactive)
CCCCC1Nc2ccccc2-c2ccnc(Cl)c21 (stereo not given) | 33 µM (inactive) | 3.61 µM (inactive) | 21.5 µM (inactive) | 20.8 µM (inactive) | 11.1 µM (inactive) | 32.1 µM (inactive) | 20.8 µM (inactive) | 20.9 µM (inactive) | 18 µM (inactive) | 16.8 µM (inactive) | 17.8 µM (inactive) | 18.7 µM (inactive) | 21.2 µM (inactive) | 28.1 µM (inactive) |  | 19.1 µM (inactive) | 16.1 µM (inactive) |  | 20 µM (inactive)
C#CCC(O)c1ccc(OC)c(OCc2ccccc2)c1 (stereo not given) | > 100 µM (inactive) | > 100 µM (inactive) | 98.4 µM (inactive) | > 100 µM (inactive) | > 100 µM (inactive) | > 100 µM (inactive) | > 100 µM (inactive) | 61.9 µM (inactive) |  | > 100 µM (inactive) | 23.6 µM (inactive) |  |  | > 100 µM (inactive) | > 100 µM (inactive) | 26.7 µM (inactive) | > 100 µM (inactive) | > 100 µM (inactive) | 52.1 µM (inactive)
CC1C(=O)OCC2=CCN3CCC(OC(=O)C(C)C1(C)O)C23 (stereo not given) | > 100 µM (inactive) | > 100 µM (inactive) | > 100 µM (inactive) | > 100 µM (inactive) | > 100 µM (inactive) | > 100 µM (inactive) | > 100 µM (inactive) | > 100 µM (inactive) | > 100 µM (inactive) | > 100 µM (inactive) | > 100 µM (inactive) |  | > 100 µM (inactive) | > 100 µM (inactive) | > 100 µM (inactive) | > 100 µM (inactive) | > 100 µM (inactive) | > 100 µM (inactive) | > 100 µM (inactive)
CCN1CCCC(C#N)(c2ccccc2)CC1 (stereo not given) | > 100 µM (inactive) | > 100 µM (inactive) | > 100 µM (inactive) | > 100 µM (inactive) |  | > 100 µM (inactive) | > 100 µM (inactive) | > 100 µM (inactive) |  |  | > 100 µM (inactive) | > 100 µM (inactive) | > 100 µM (inactive) | > 100 µM (inactive) | > 100 µM (inactive) | > 10 µM (inactive) |  | > 100 µM (inactive) | > 100 µM (inactive)
COc1cccc(/C(CC(O)(C(F)(F)F)C(F)(F)F)=N\N(C)C)c1 | > 100 µM (inactive) | > 100 µM (inactive) | > 100 µM (inactive) | > 100 µM (inactive) | > 100 µM (inactive) | > 100 µM (inactive) | > 100 µM (inactive) | > 100 µM (inactive) |  | > 100 µM (inactive) | > 100 µM (inactive) | > 100 µM (inactive) | > 100 µM (inactive) | > 100 µM (inactive) |  | > 100 µM (inactive) | > 100 µM (inactive) | > 100 µM (inactive) | 
O=C(O)C1C2CC3CC2CC31 (stereo not given) | > 100 µM (inactive) | > 100 µM (inactive) | > 100 µM (inactive) | > 100 µM (inactive) | > 100 µM (inactive) | > 100 µM (inactive) | > 100 µM (inactive) | > 100 µM (inactive) |  | > 100 µM (inactive) | > 100 µM (inactive) |  | > 100 µM (inactive) | > 100 µM (inactive) | > 100 µM (inactive) | > 100 µM (inactive) |  |  | > 100 µM (inactive)
Oc1ccc(-c2nc3cc(C(F)(F)F)ccc3n2CC2CCCN3CCCCC23)cc1 (stereo not given) | 16.9 µM (inactive) | 18 µM (inactive) | 13.4 µM (inactive) |  | 13 µM (inactive) | 15.1 µM (inactive) | 15 µM (inactive) | 15.5 µM (inactive) |  | 14.7 µM (inactive) | 15 µM (inactive) | 16.6 µM (inactive) | 15.1 µM (inactive) |  | 16 µM (inactive) | 14.7 µM (inactive) | 13.5 µM (inactive) | 18.2 µM (inactive) | 16.3 µM (inactive)
